The values that follow come from the NIST ThermoML archive (doi:10.1016/j.fluid.2015.05.043).

For the data set the following is noted: 298.15 K; 101.33 kPa; Liquid; Alternating current cell with electrodes.

Numbers after ± are expanded uncertainties.

As for `O` [water], the electrical conductivity amounted to 0.000129 ± 1e-06 S/m.
